Data reported in ChEMBL document CHEMBL5113452, “Synthesis and biological evaluation of hybrids from optically active ring-opened 3-N-butylphthalide derivatives and 4-fluro-edaravone as potential anti-acute ischemic stroke agents” (Bioorg Med Chem, 2022).
Active and inactive are the calls of the source. The calls are words filed in the database; no cut-off is given here.

Experiments:
[1] = Half life in Sprague-Dawley rat plasma at 4.53 mg/kg, iv and measured upto 24 hrs in presence of S-NBP by LC-MS/MS analysis; format: ADME, organism-based
[2] = AUC (0-infinity) in Sprague-Dawley rat plasma at 4.53 mg/kg, iv and measured upto 24 hrs in presence of S-NBP by LC-MS/MS analysis; format: ADME, organism-based; design: time < 24 hrs, dose 4.53 mg/kg, route iv
Rattus norvegicus [3] = experiment: Neuroprotective activity against transient middle cerebral artery occlusion induced cerebral infraction Sprague-Dawley rat model assessed as decrease in brain edema at 4.10 mg/kg, iv and measured after 24 hrs in presence of NBP; format: functional, organism-based; details: dose 4.1 mg/kg
[4] = Toxicity in transient middle cerebral artery occlusion induced ischemia stroke Sprague-Dawley rat model assessed as change in body weight at 4.53 mg/kg, iv and measured after 24 hrs; format: organism-based; details: in vivo
[5] = Cmax in Sprague-Dawley rat plasma at 4.53 mg/kg, iv and measured upto 24 hrs in presence of S-NBP by LC-MS/MS analysis; format: ADME, organism-based; design: time < 24 hrs, dose 4.53 mg/kg, route iv
[6] = AUC (0-infinity) in Sprague-Dawley rat plasma at 4.53 mg/kg, iv and measured upto 24 hrs by LC-MS/MS analysis; format: ADME, organism-based; design: time < 24 hrs, dose 4.53 mg/kg, route iv
Rattus norvegicus [7] = experiment: Neuroprotective activity against transient middle cerebral artery occlusion induced cerebral infraction Sprague-Dawley rat model assessed as decrease in cerebral infraction volume at 4.53 mg/kg, iv and measured after 24 hrs by TTC staining based assay; format: functional; design: scale not given: the % may be the effect or the level left
[8] = C0 in Sprague-Dawley rat plasma at 4.53 mg/kg, iv and measured upto 24 hrs in presence of S-NBP by LC-MS/MS analysis; format: ADME, organism-based
[9] = Cmax in Sprague-Dawley rat plasma at 4.53 mg/kg, iv and measured upto 24 hrs by LC-MS/MS analysis; format: ADME, organism-based; design: dose 4.53 mg/kg, time < 24 hrs, route iv
[10] = AUC (0-t) in Sprague-Dawley rat plasma at 4.53 mg/kg, iv and measured upto 24 hrs by LC-MS/MS analysis; format: ADME, organism-based; design: dose 4.53 mg/kg, time < 24 hrs, route iv
Rattus norvegicus [11] = experiment: Neuroprotective activity against transient middle cerebral artery occlusion induced cerebral infraction Sprague-Dawley rat model assessed as decrease in brain edema at 4.53 mg/kg, iv and measured after 24 hrs in presence of […]; format: functional, organism-based
[12] = Toxicity in transient middle cerebral artery occlusion induced ischemia stroke Sprague-Dawley rat model assessed as change in body weight at 4.10 mg/kg, iv and measured after 24 hrs in presence of NBP; format: organism-based; details: in vivo, 4.1 mg/kg
Rattus norvegicus [13] = experiment: Neuroprotective activity against transient middle cerebral artery occlusion induced ischemia stroke Sprague-Dawley rat model assessed as increase in neuro-fucntional score at 4.53 mg/kg, iv and measured after 24 hrs in presence of S-APB by longa's method; format: functional, organism-based
[14] = Half life in Sprague-Dawley rat plasma at 4.53 mg/kg, iv and measured upto 24 hrs by LC-MS/MS analysis; format: ADME, organism-based
[15] = AUMC (0-t) in Sprague-Dawley rat plasma at 4.53 mg/kg, iv and measured upto 24 hrs by LC-MS/MS analysis; format: ADME, organism-based; details: in vivo
[16] = Volume of distribution at steady state in Sprague-Dawley rat plasma at 4.53 mg/kg, iv and measured upto 24 hrs in presence of S-NBP by LC-MS/MS analysis; format: ADME, organism-based; details: read-out: Vdss
[17] = Volume of distribution at steady state in Sprague-Dawley rat plasma at 4.53 mg/kg, iv and measured upto 24 hrs by LC-MS/MS analysis; format: ADME, organism-based; details: read-out: Vdss
[18] = MRT in Sprague-Dawley rat plasma at 4.53 mg/kg, iv and measured upto 24 hrs by LC-MS/MS analysis; format: ADME, organism-based
[19] = Elimination rate constant in Sprague-Dawley rat plasma at 4.53 mg/kg, iv and measured upto 24 hrs in presence of S-NBP by LC-MS/MS analysis; format: ADME, organism-based
Rattus norvegicus [20] = experiment: Neuroprotective activity against transient middle cerebral artery occlusion induced cerebral infraction Sprague-Dawley rat model assessed as decrease in cerebral infraction volume at 4.10 mg/kg, iv and measured after 24 hrs in presence of NBP by TTC staining based assay; format: functional; design: scale not given: the % may be the effect or the level left; details: dose 4.1 mg/kg
[21] = Toxicity in transient middle cerebral artery occlusion induced ischemia stroke Sprague-Dawley rat model assessed as change in body weight at 4.53 mg/kg, iv and measured after 24 hrs in presence of S-APB; format: organism-based; details: in vivo
Rattus norvegicus [22] = experiment: Neuroprotective activity against transient middle cerebral artery occlusion induced ischemia stroke Sprague-Dawley rat model assessed as increase in neuro-fucntional score at 4.53 mg/kg, iv and measured after 24 hrs by longa's method; format: functional, organism-based
[23] = AUMC (0-t) in Sprague-Dawley rat plasma at 4.53 mg/kg, iv and measured upto 24 hrs in presence of S-NBP by LC-MS/MS analysis; format: ADME, organism-based; details: in vivo
Rattus norvegicus [24] = experiment: Neuroprotective activity against transient middle cerebral artery occlusion induced ischemia stroke Sprague-Dawley rat model assessed as increase in neuro-fucntional score at 4.10 mg/kg, iv and measured after 24 hrs in presence of NBP by longa's method; format: functional, organism-based; details: dose 4.1 mg/kg
[25] = Clearance in Sprague-Dawley rat plasma at 4.53 mg/kg, iv and measured upto 24 hrs in presence of S-NBP by LC-MS/MS analysis; format: ADME, organism-based
Rattus norvegicus [26] = experiment: Neuroprotective activity against transient middle cerebral artery occlusion induced cerebral infraction Sprague-Dawley rat model assessed as decrease in cerebral infraction volume at 4.53 mg/kg, iv and measured after 24 hrs in presence of S-APB by TTC staining based assay; format: functional; design: scale not given: the % may be the effect or the level left
[27] = AUMC (0-infinity) in Sprague-Dawley rat plasma at 4.53 mg/kg, iv and measured upto 24 hrs in presence of S-NBP by LC-MS/MS analysis; format: ADME, organism-based; details: in vivo
[28] = C0 in Sprague-Dawley rat plasma at 4.53 mg/kg, iv and measured upto 24 hrs by LC-MS/MS analysis; format: ADME, organism-based
[29] = AUC (0-t) in Sprague-Dawley rat plasma at 4.53 mg/kg, iv and measured upto 24 hrs in presence of S-NBP by LC-MS/MS analysis; format: ADME, organism-based; design: time < 24 hrs, dose 4.53 mg/kg, route iv
[30] = MRT in Sprague-Dawley rat plasma at 4.53 mg/kg, iv and measured upto 24 hrs in presence of S-NBP by LC-MS/MS analysis; format: ADME, organism-based
[31] = Elimination rate constant in Sprague-Dawley rat plasma at 4.53 mg/kg, iv and measured upto 24 hrs by LC-MS/MS analysis; format: ADME, organism-based
[32] = AUMC (0-infinity) in Sprague-Dawley rat plasma at 4.53 mg/kg, iv and measured upto 24 hrs by LC-MS/MS analysis; format: ADME, organism-based; details: in vivo
[33] = Clearance in Sprague-Dawley rat plasma at 4.53 mg/kg, iv and measured upto 24 hrs by LC-MS/MS analysis; format: ADME, organism-based

For CC1=NN(c2ccc(F)cc2)C(=O)C1, the half-life [1] was 310 min, the AUC(0-inf) [2] was 2780 ng·h/mL and the Activity (Rattus norvegicus [3]) was “Active”. The Activity [4] was “Non-Toxic”, the Cmax [5] was 6100 ng/mL and the AUC(0-inf) [6] was 1360 ng·h/mL. It also gave an Activity (Rattus norvegicus [7]) of 32.46%, a C0 at 24 h [8] of 12400 ng/mL and a Cmax [9] of 2960 ng/mL. The AUC(0-t) at 24 h [10] was 1350 ng·h/mL, the Activity (Rattus norvegicus [11]) was “Active” and the Activity [12] was “Non-Toxic”. The Activity (Rattus norvegicus [13]) was “Active”, the half-life [14] was 68.4 min and the AUMCt [15] was 903 hr.hr.ng/ml. The Vd [16] was 3.45 L/kg, the Vd [17] was 2.39 L/kg and the MRT [18] was 43 min. The k el at 24 h [19] was 3.75e-05 s⁻¹, the Activity (Rattus norvegicus [20]) was 57.7% and the Activity [21] was “Non-Toxic”. The Activity (Rattus norvegicus [22]) was “Active”, the AUMCt [23] was 4690 hr.hr.ng/ml and the Activity (Rattus norvegicus [24]) was “Active”. It also gave a clearance [25] of 27.4 mL/min/kg, an Activity (Rattus norvegicus [26]) of 68.37% and an AUMC [27] of 5830 hr.hr.ng/ml. The C0 at 24 h [28] was 4910 ng/mL, the AUC(0-t) at 24 h [29] was 2750 ng·h/mL and the MRT [30] was 2.1 h. The k el at 24 h [31] was 0.000171 s⁻¹, the AUMC [32] was 982 hr.hr.ng/ml and the clearance [33] was 55.9 mL/min/kg.
